Columns and labels:
[1] = system: male C3H/HeN mice (telogen to anagen conversion); type: in vivo; settings: mouse, in vivo
Source text: While this model is a significant improvement over the telogen conversion assay as a model for human baldness, it suffers from a number of practical disadvantages. The macaques are expensive, relatively rare, labor intensive to maintain, and require long wash out periods between testing. […] Thus, the model relates to a modification of the existing telogen conversion assay. Male C3H/HeN mice approximately 7 weeks old are utilized. These animals are also uniformly in telogen, like their female counterparts. However, once shaven, the androgens inherently present in these male mice inhibit the conversion of the hair follicles to the anagen phase. An anti-androgen will block this androgenic effect and the follicles will convert to anagen, like their female counterparts.
The compounds shown below in Table IV were submitted for further testing utilizing the modified telogen conversion assay, described above. The testing was carried out in the following manner.
Male C3H/HeN mice, 6 to 7 weeks old (Charles River Laboratories, Raleigh, N.C.) were used for the study. Fur was clipped from the dorsal region of the mice prior to initiation of the study. Only mice with pink skin, a visual indication of the telogen phase, were selected for inclusion in the study.
A second group of animals received only the vehicle to serve as a control. Treatments were applied twice daily for 4 weeks.
The hair growth response was quantified by recording, for each animal, the day on which signs of hair growth first appeared over the treated area. The first sign of anagen was the darkening of skin color as melanocytes in the follicles started to synthesize melanin in preparation for the production of pigmented hairs. […] The day on which anagen was initiated in 50% of the test animals for both the treatment group and the vehicle group is reported below in Table IV.

[2] = system: male Syrian hamsters (ear sebaceous glands, sebum); assay: Animal model for inhibition of sebum production (hamster ear); type: in vivo, Syrian hamster; settings: 3 % w/v, 4 weeks
Description: Arch. Derm. […] This model uses male Syrian hamsters, whose ears contain sebaceous glands.
Testing for sebum inhibition was carried out in the following manner. Male Syrian hamsters aged 9 to 10 weeks were introduced into the laboratory environment and acclimated for 2 weeks prior to use in the study. Each group consisted of 5 animals and run in parallel with vehicle and positive controls. Prior to administration, a sufficient quantity each compound was dissolved in 1 mL of the vehicle identified in Table III to achieve the final concentration reported in Table Ill.
Animals were dosed topically twice daily, five days a week, for 4 weeks. Each dose consisted of 25 micro liters of vehicle control or drug. The dose was applied to the ventral surfaces of both the right and left ears. All animals were sacrificed approximately 18-24 hours after the final dose. The right ears were collected from each animal and used for sebum analysis.
The ears were prepped for HPLC analysis in the following manner. One 8 mm distal biopsy punch was taken, just above the anatomical “V” mark in the ear to normalize the sample area. The punch was pulled apart. The ventral biopsy surface (the area where the topical dose was directly applied to the sebaceous glands) was retained for testing and the dorsal surface of the biopsy punch was discarded.
Tissue samples were blown with N2 gas and stored at −80° C. under nitrogen until HPLC analysis. In addition to ear samples, an aliquot of each drug and vehicle (at least 250 ul) was also stored at −80° C. for inclusion in the HPLC analysis.
HPLC analysis was carried out on an extract of the tissue sample. Tissue samples were contacted with 3 ml of solvent (a 4:1 admixture of 2,2,4-trimethylpentane and isopropyl alcohol). The mixture was shaken for 15 minutes and stored overnight at room temperature, protected from light. The next morning 1 milliliter of water was added to the sample and shaken for 15 minutes. The sample was then centrifuged at approximately 1500 rpm for 15 minutes. Two ml of the organic phase (top layer) was transferred to a glass vial, dried at 37° C., under nitrogen, for approximately 1 hour, and then lyophilized for approximately 48 hours. The samples were then removed from the lyophilizer and each vial was reconstituted with 600 μl of solvent A (trimethylpentane/tetrahydrofuran (99:1). The samples were then recapped and vortexed for 5 minutes.
200 μl of each sample was then transferred to a pre-labeled 200 μl HPLC vial with 200 μL glass inserts. The HPLC vials were placed in the autosampler tray for the Agilent 1100 series HPLC unit. The Agilent 1100 HPLC system consisted of a thermostated autosampler, a quarternary pump, a column heater, and an A/D interface module. All components were controlled by Agilent ChemStation software. A Waters Spherisorb S3W 4.6×100 mm analytical column was maintained at 30° C. by the Agilent column heater unit. The HPLC autosampler was programmed to maintain the sample temperature at 20 C throughout the run.
10 uL of each sample was injected in triplicate into the column. Two solvents were used for the solvent gradient. Solvent A was an admixture of trimethylpentane and tetrahydrofuran (99:1). Solvent B was ethylacetate. The gradient utilized is described in the table below: […]
The Sedex 75 Evaporative Light Scattering Detector (ELSD) was operated at 45° C. with a gain of 5, and N2 pressure maintained at 3.1 bar. Analog signal obtained by the instrument was sent to the Agilent A/D interface module where it was converted to a digital output. The conversion was based on a 10000 mAU/volt set point and the data rate was set at 10 Hz (0.03 min). The resulting digital output was then feed into the Agilent ChemStation software for integration of the peak area.

[3] = Vehicle #1 (polyethylene glycol/transcutol/ethanol 20/20/60), topical twice daily, vs vehicle control

CSc1ccccc1Oc1ccc(C#N)cc1Cl [Example 5, 3-Chloro-4-(2-methylsulfanyl-phenoxy)-benzonitrile]
Anagen-Trx (day on which anagen was initiated in 50% of the test animals) [1]: >35 days
% CE Reduction [2, 3]: 27%
% WE Reduction [2, 3]: 39%
% WE & CE Reduction ([2]; Vehicle #1, topical twice daily, sum of WE and CE): 66%

— patent publication US20090105349A1, “ANDROGEN MODULATORS” (WARNER-LAMBERT COMPANY LLC, priority 2004, published 2009)
